The results in this text go back to patent publication US10898548B2, “Modulators of protein tyrosine phosphatase and uses thereof” (LEUVAS THERAPEUTICS, priority 2015, dated 2021).

The subject of one assay is U251 GBM cells. Description: MTT survival assay, U251 GBM cells. Format: cell-based. On the procedure:
Briefly, U251 GBM cells, normal primary cortical murine neurons and a mixed culture of murine microglia and astrocytes were treated for 24, 48 and 72 hours with no treatment (control), delivery peptide (P1 or TAT) or increasing concentrations of P1-WD or TAT-ICD. Cell viability and survival was measured using the MTT assay, a colorimetric assay for assessing cell metabolic activity set up under conditions where the absorption reflects the number of viable cells present (Table 21 and 22) and expressed as relative absorption at 570 nm. Early apoptosis was measured using VYBRANT DyeCycle Violet stain (Molecular Probes), a DNA-selective, cell membrane-permeant dye that can distinguish the compacted state of the nuclear chromatin in apoptotic cells as determined by flow cytometry and presented as the percent of cells that are apoptotic (Table 23 and 24). The actual number of cells following treatment with TAT-ICD or TAT alone (Table 25) was determined using flow cytometry compared to an input of 5,000 cells at time zero. To confirm apoptosis the TUNEL labeling assay, which detects DNA strand breaks in apoptotic cells by fluorescence microscopy, was also used to examine U251 cells treated with the PTPRG WD. Briefly, the assay used an optimized terminal transferase ([…]) to label 3′OH ends in genomic DNA with TMR-dUTP, thus allowing the measurement and quantification of cell death by apoptosis. U251 cells were pretreated for 1, 3 and 6 hours with 50 μM P1-WD. Then cells were fixed and permeabilized, incubated with TUNEL reaction mixture for 1 h at RT, and then stained with DAPI (for nuclei detection) and with Alexa670-Phalloidin (to detect actin in cell membranes). After the staining steps, cells were visualized with a confocal microscope.

The test system of a further assay is JAK2 (pYpY1007/1008). Briefly: p-JAK2 ELISA on monocytes. Type of assay: cell-based, human. The note with it: 1 hour, 50 nM fMLP 90 sec, CTRL 100. The text has this:
JAK2 regulation by PTPRG as assessed through the high-throughput phospho-proteomics analysis evidenced that PTPRG activation (Example 4, Table 9 and 10) provides a useful example of the exploitation of this analysis system for identification of targets and unexpected indications/uses for known and novel agents that regulate the phoshoproteome. […] Furthermore, the capability of fMLP to trigger JAKs activation has never been observed. The results described in Example 4 unexpectedly implicate JAK2 de-phosphorylation by PTPRG as playing a role in the anti-adhesive role of PTPRG on monocytes. To test this system-generated hypothesis we first set out to define the role of JAK2 in fMLP-triggered rapid adhesion in monocytes. Time course experiments, either performed with ELISA assay or Western Blot. Briefly, purified human monocytes were treated with buffer (resting) or with 50 nM fMLP for the indicated times (Table 12), and the phosphorylation was assessed by p-Jak2 elisa and Western Blot analysis. The JAK2 activation was determined with Elisa Kit JAK2 (pYpY1007/1008) (Invitrogen). Briefly, cells were stimulated with agonist and lysed following manufacturer's protocol; levels of phospho-JAK2 were quantified (absorbance at 450 nm) with a micro-well plate reader (Victor™ X5 Multilabel Plate Reader, Perkin Elmer). For Western blot analysis, cells were lysed in ice-cold 1% Nonidet P-40 buffer, containing phosphatase inhibitors and complete protease inhibitor cocktail (Roche). Total cell lysates were quantified by Bradford assay (Bio-Rad). Equal amounts of total lysates or of isolated membranes (as described in Example 1) were subjected to 10% SDS-PAGE and then blotted. After incubation with anti-PTPRG, anti gp91^Phox, anti phospho-JAK2, anti JAK2 and HRP-linked secondary antibodies (GE Healthcare), immunoreactive bands were visualized by ECL detection (EMD Millipore). Intensities of band signals were quantified by densitometric analysis (Quantity One, Bio-Rad) by using ImageQuant Las4000. Data are mean value of three experiments; the relative ratio of the band intensity of phosphor-JAK2 was normalized to the level of JAK2 band intensities.
Briefly, p-JAK2 ELISA assay on human monocytes treated with buffer (CTRL=control), 50 μM P1-WD, P1 or P1-WD scrambled peptides (Table 17), or with buffer (CTRL=control), 0.5 uM TAT-ICD or 50 μM TAT peptide (Table 18) for 1 hour at 37° C. and stimulated with 50 nM fMLP for 90 sec. Shown are percentages of fold increases over the control; mean values of 3 experiments in triplicate.
A general note: ELISA stands for enzyme-linked immunosorbent assay.

A further assay deals with T98G GBM cells. Description: MTT survival assay, T98G GBM cells. Type of assay: cell-based, human. On the procedure:
The DBTRG-O5MG (Denver Brain Tumor Research Group 05) cell line was established from tissue from a patient with glioblastoma multiforme who had been treated with local brain irradiation and multi drug chemotherapy (Kruse C A, et al. 1992 In vitro Cell Dev Biol, 28A(9-10):609-14). U87 is a commonly studied and thoroughly characterized grade IV glioma cell line derived from malignant glioma (Clark M J, et al, 2010 Plos Genet. 6(1):e1000832.). T98G is a glioblastoma multiforme cell line extracted from a person (Stein G H, 1979, J. Cell Physiol, 99(1):43-54). Proliferation and survival were assessed following TAT-ICD or control peptide (Table 29) or the P1-WD or control peptide treatment using the MTT assay as described above. Data are relative absorption; mean and standard deviation.

Setting [1] is: P1 or P1-WD 50 uM, 24 hours, control 821.
[2] abbreviates: P1 or P1-WD 50 uM, 48 hours, control 1943.
[3] abbreviates: P1 or P1-WD 50 uM, 72 hours, control 2556.
The mark [4] stands for this setting: 50 μM P1-WD, P1 or P1-WD scrambled.
The mark [5] stands for this setting: P1 or P1-WD 50 μM, 24 hours, Control 971.
[6] abbreviates: P1 or P1-WD 50 μM, 48 hours, Control 1305.
Setting [7] is: P1 or P1-WD 50 μM, 72 hours, Control 1481.
The mark [8] stands for this setting: 0.5 uM TAT-ICD or 50 μM TAT peptide.

On to “P1-WD: fusion Trojan peptide SEQ ID 3: Penetratin, glycine, PTPRG wedge domain aa 831-856; RQIKIWFQNRRMKWKKGKQFVKHIGELYSNNQHGFSEDFEEVQ (listed as Homo sapiens)”, for which the “MTT relative absorption at 570 nM” value with U251 GBM cells (P1-WD 10 uM, 24 hours, control 821) was 656; with U251 GBM cells (P1-WD 10 uM, 48 hours, control 1943), 1400; with U251 GBM cells (P1-WD 10 uM, 72 hours, control 2556), 1593; in the assay on U251 GBM cells (P1-WD 25 uM, 24 hours, control 821) it was 469; with U251 GBM cells (P1-WD 25 uM, 48 hours, control 1943), 820; with U251 GBM cells (P1-WD 25 uM, 72 hours, control 2556) it was 1281. Moreover, the entries for the “MTT relative absorption at 570 nM” value with U251 GBM cells (setting [1]), in the assay on U251 GBM cells (setting [2]) and in the assay with U251 GBM cells (setting [3]) were 411, 733 and 1060, respectively. For the same substance, the “p-JAK2 ELISA, percentages of fold increases over the control” value in the assay with JAK2 (pYpY1007/1008) (setting [4]) stood at 51%. For the same substance, the “absorbance in the MTT assay” value with T98G GBM cells (P1-WD 10 μM, 24 hours, Control 971) is 629; in the assay on T98G GBM cells (P1-WD 10 μM, 48 hours, Control 1305), 854; with T98G GBM cells (P1-WD 10 μM, 72 hours, Control 1481), 985; with T98G GBM cells (P1-WD 25 μM, 24 hours, Control 971), 555; with T98G GBM cells (P1-WD 25 μM, 48 hours, Control 1305) it was 697; in the assay on T98G GBM cells (P1-WD 25 μM, 72 hours, Control 1481), 835. The results for the “absorbance in the MTT assay” value in the assay on T98G GBM cells (setting [5]), in the assay on T98G GBM cells (setting [6]) and with T98G GBM cells (setting [7]) were 540, 744 and 842, respectively.

“TAT-ICD: fusion recombinant protein SEQ ID 5: PTPRG intracellular domain aa 797-1445 fused to 13 aa TAT sequence”: the “MTT relative absorption at 570 nM” value was 568 in the assay with U251 GBM cells (TAT-ICD 0.5 uM, 24 hrs, Control 821); 969 in the assay on U251 GBM cells (TAT-ICD 0.5 uM, 48 hrs, Control 1943); 1630 in the assay with U251 GBM cells (TAT-ICD 0.5 uM, 72 hrs, Control 2556); 353 in the assay on U251 GBM cells (TAT-ICD 1.0 uM, 24 hrs, Control 821); 526 in the assay on U251 GBM cells (TAT-ICD 1.0 uM, 48 hrs, Control 1943); 830 in the assay with U251 GBM cells (TAT-ICD 1.0 uM, 72 hrs, Control 2556). The “MTT relative absorption at 570 nM” value in the assay on U251 GBM cells (TAT-ICD 2.0 uM, 24 hrs, Control 821) is reported as 244; in the assay on U251 GBM cells (TAT-ICD 2.0 uM, 48 hrs, Control 1943) it was 236; in the assay on U251 GBM cells (TAT-ICD 2.0 uM, 72 hrs, Control 2556), 279. For the same substance, the “p-JAK2 ELISA, percentages of fold increases over the control” value with JAK2 (pYpY1007/1008) (setting [8]) stood at 53%. Further, the “absorbance in the MTT assay” value in the assay on T98G GBM cells (TAT-ICD 0.5 μM, 24 hours, CTRL 971) was 921; with T98G GBM cells (TAT-ICD 0.5 μM, 48 hours, CTRL 1305), 1301; in the assay with T98G GBM cells (TAT-ICD 0.5 μM, 72 hours, CTRL 1481), 1061; in the assay on T98G GBM cells (TAT-ICD 1 μM, 24 hours, CTRL 971) it was 745; in the assay with T98G GBM cells (TAT-ICD 1 μM, 48 hours, CTRL 1305), 947; with T98G GBM cells (TAT-ICD 1 μM, 72 hours, CTRL 1481) it was 935. Also, the “absorbance in the MTT assay” value in the assay with T98G GBM cells (TAT-ICD 2 μM, 24 hours, CTRL 971) is on record as 552; in the assay with T98G GBM cells (TAT-ICD 2 μM, 48 hours, CTRL 1305) it was 687; in the assay on T98G GBM cells (TAT-ICD 2 μM, 72 hours, CTRL 1481), 625.

On to “TAT (GRKKRRQRRRPPQ; listed as Homo sapiens) [reference compound]”, for which the “MTT relative absorption at 570 nM” value is listed as 825 with U251 GBM cells (TAT 50 uM, 24 hrs, Control 821); 1654 in the assay with U251 GBM cells (TAT 50 uM, 48 hrs, Control 1943); 2068 with U251 GBM cells (TAT 50 uM, 72 hrs, Control 2556). The “p-JAK2 ELISA, percentages of fold increases over the control” value in the assay with JAK2 (pYpY1007/1008) (setting [8]) amounted to 99%. The “absorbance in the MTT assay” value stood at 954 in the assay on T98G GBM cells (TAT 500[…]μM, 24 hours, CTRL 971); 1237 with T98G GBM cells (TAT 500[…]μM, 48 hours, CTRL 1305); 1205 in the assay with T98G GBM cells (TAT 500[…]μM, 72 hours, CTRL 1481).

In the case of “P1: Penetratin delivery peptide, 16 aa RQIKIWFQNRRMKWKK (SEQ ID 4), control [reference compound]”, the “MTT relative absorption at 570 nM” value was 600 with U251 GBM cells (setting [1]), 1743 with U251 GBM cells (setting [2]) and 2294 with U251 GBM cells (setting [3]). The “p-JAK2 ELISA, percentages of fold increases over the control” value in the assay with JAK2 (pYpY1007/1008) (setting [4]) is 95%. Further, the entries for the “absorbance in the MTT assay” value with T98G GBM cells (setting [5]), in the assay on T98G GBM cells (setting [6]) and in the assay on T98G GBM cells (setting [7]) were 1113, 1019 and 1111, respectively.
